Assay results taken from ChEMBL document CHEMBL1201862, “PubChem BioAssay data set” (2004).
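Results reflect a 48-hour exposure of cells in 96-well plates to compound at five concentrations. Here, GI50 denotes the concentration required for 50% inhibition of growth.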 The source made the active and inactive calls. No stated cut-off is given here; in the data, active = GI50 up to about 1.1 µM and inactive = higher.

Columns and labels:
Experiment in all cases: DTP human tumour cell line panel, 48 h
UACC-257 = tested on: UACC-257
SNB-19 = tested on: SNB-19
SF-295 = tested on: SF-295
NCI-H460 = tested on: NCI-H460
ACHN = tested on: ACHN
K562 = tested on: K562
BT-549 = tested on: BT-549
786-0 = tested on: 786-0
DU-145 = tested on: DU-145
UACC-62 = tested on: UACC-62
OVCAR-5 = tested on: OVCAR-5
HCC 2998 = tested on: HCC 2998
OVCAR-3 = tested on: OVCAR-3
PC-3 = tested on: PC-3
CCRF-CEM = tested on: CCRF-CEM
COLO 205 = tested on: COLO 205
SNB-75 = tested on: SNB-75
NCI-H226 = tested on: NCI-H226
RXF 393 = tested on: RXF 393

Measured: GI50

Clc1ccc(COC(Cn2ccnc2)c2ccc(Cl)cc2Cl)c(Cl)c1 (stereo not given) [MICONAZOLE]
inactive: UACC-257 13.6 µM | SNB-19 13.4 µM | SF-295 11.2 µM | NCI-H460 17.5 µM | ACHN 15 µM | K562 3.66 µM | BT-549 15 µM | 786-0 7.33 µM | DU-145 15.7 µM | UACC-62 11.5 µM | OVCAR-5 17.7 µM | HCC 2998 17.1 µM | OVCAR-3 12.2 µM | PC-3 7.08 µM | CCRF-CEM 8.09 µM

O=[N+]([O-])c1ccc2nc(=S)[nH]n2c1
inactive: COLO 205 > 100 µM | UACC-257 > 100 µM | SNB-19 > 100 µM | SF-295 > 100 µM | NCI-H460 > 100 µM | ACHN > 100 µM | K562 > 100 µM | BT-549 > 100 µM | 786-0 > 100 µM | DU-145 > 100 µM | UACC-62 > 100 µM | OVCAR-5 > 100 µM | HCC 2998 > 100 µM | SNB-75 > 100 µM | NCI-H226 > 100 µM | CCRF-CEM > 100 µM | RXF 393 > 100 µM

CC1(C)COC(c2ccc(C(=O)c3ccc(Cl)cc3)cc2)=N1
inactive: COLO 205 > 100 µM | UACC-257 10.7 µM | SNB-19 > 100 µM | SF-295 65.2 µM | NCI-H460 > 100 µM | ACHN > 100 µM | K562 28.6 µM | 786-0 > 100 µM | DU-145 > 100 µM | UACC-62 > 100 µM | OVCAR-5 > 100 µM | HCC 2998 > 100 µM | SNB-75 > 100 µM | OVCAR-3 > 100 µM | PC-3 > 100 µM | NCI-H226 23 µM | CCRF-CEM > 100 µM | RXF 393 79.6 µM

CC1(C)O[C@@H]2[C@@H](COC(C)(C)O[C@H]2C2SCCCS2)O1
inactive: COLO 205 > 100 µM | SNB-19 > 100 µM | SF-295 > 100 µM | NCI-H460 > 100 µM | ACHN > 100 µM | K562 > 100 µM | 786-0 > 100 µM | DU-145 > 100 µM | UACC-62 > 100 µM | OVCAR-5 > 100 µM | HCC 2998 > 100 µM | OVCAR-3 > 100 µM | PC-3 > 100 µM | RXF 393 > 100 µM

Nc1c(-c2nc3ccccc3s2)c2ccc([N+](=O)[O-])cc2c(=O)n1-c1cccc(C(=O)O)c1
inactive: COLO 205 63.5 µM | UACC-257 20.9 µM | SNB-19 19.8 µM | NCI-H460 27 µM | ACHN 33 µM | BT-549 20.1 µM | 786-0 31.7 µM | DU-145 23.3 µM | UACC-62 21 µM | HCC 2998 62.5 µM | SNB-75 30.8 µM | PC-3 29.9 µM | NCI-H226 23 µM | CCRF-CEM 22.8 µM

COc1ccc(OC)c2c1ccc1c(C)c3ccccc3c(C)c12
inactive: UACC-257 > 100 µM | SNB-19 > 100 µM | NCI-H460 71.9 µM | ACHN > 100 µM | K562 51.8 µM | BT-549 > 100 µM | 786-0 > 100 µM | DU-145 > 100 µM | UACC-62 > 100 µM | OVCAR-5 > 100 µM | HCC 2998 15.8 µM | SNB-75 > 100 µM | OVCAR-3 95.3 µM | PC-3 > 100 µM | NCI-H226 > 100 µM | CCRF-CEM > 100 µM

COc1cc(OC)c(C/C=C/c2ccccc2)cc1O
inactive: COLO 205 22 µM | UACC-257 23.6 µM | SNB-19 15.9 µM | NCI-H460 17.3 µM | ACHN 25.7 µM | K562 14.4 µM | BT-549 16.1 µM | 786-0 18.2 µM | DU-145 17.1 µM | UACC-62 15.5 µM | OVCAR-5 26.6 µM | HCC 2998 16.3 µM | SNB-75 14.6 µM | OVCAR-3 14.7 µM | PC-3 17.1 µM | NCI-H226 17.9 µM | CCRF-CEM 22.1 µM

Cn1c(N)c(Cc2ccc(Cl)cc2)c(=O)[nH]c1=O
inactive: COLO 205 > 100 µM | UACC-257 > 100 µM | SNB-19 > 100 µM | SF-295 > 100 µM | ACHN > 100 µM | K562 > 100 µM | BT-549 > 100 µM | 786-0 > 100 µM | DU-145 > 100 µM | UACC-62 > 100 µM | OVCAR-5 > 100 µM | SNB-75 62.8 µM | OVCAR-3 > 100 µM | NCI-H226 > 100 µM | CCRF-CEM > 100 µM | RXF 393 > 100 µM

CCOC(=O)/C(=C\NC[C@@H](C)O)c1nc2ccccc2[nH]1
inactive: COLO 205 69.5 µM | UACC-257 56 µM | SNB-19 > 100 µM | SF-295 61.1 µM | NCI-H460 33.3 µM | ACHN 32.4 µM | BT-549 > 100 µM | 786-0 > 100 µM | DU-145 > 100 µM | UACC-62 40.9 µM | OVCAR-5 > 100 µM | HCC 2998 37.4 µM | SNB-75 > 100 µM | OVCAR-3 98.4 µM | RXF 393 > 100 µM

CCOP(=O)(OCC)C(Nc1ccc(Br)cc1)c1cccc([N+](=O)[O-])c1 (stereo not given)
inactive: COLO 205 13.2 µM | UACC-257 > 10 µM | SNB-19 24.9 µM | SF-295 12.9 µM | NCI-H460 14.1 µM | ACHN 18.3 µM | K562 12 µM | 786-0 20.4 µM | DU-145 32.8 µM | UACC-62 14.7 µM | OVCAR-5 24.1 µM | HCC 2998 17.5 µM | SNB-75 29.2 µM | OVCAR-3 16.2 µM | NCI-H226 16.7 µM | CCRF-CEM 17.8 µM | RXF 393 14.4 µM

Cc1cc2c(cc1O)CC[C@@H]1[C@@H]2CC[C@]2(C)[C@@H](O)CC[C@@H]12
inactive: COLO 205 17.6 µM | UACC-257 15.3 µM | SNB-19 12.6 µM | SF-295 6.08 µM | NCI-H460 8.65 µM | ACHN 18.9 µM | K562 2.58 µM | BT-549 6.27 µM | 786-0 14.6 µM | OVCAR-5 21.2 µM | HCC 2998 11.4 µM | SNB-75 5.43 µM | PC-3 11.1 µM | CCRF-CEM 4.32 µM

CCN(CC)CC1CCCCN1CC(=O)N1c2ccccc2C(=O)Nc2cccnc21 (stereo not given) [OTENZEPAD]
inactive: COLO 205 23.2 µM | UACC-257 38.1 µM | SNB-19 > 100 µM | SF-295 > 100 µM | NCI-H460 59.3 µM | ACHN 56 µM | 786-0 35.4 µM | DU-145 > 100 µM | UACC-62 91.4 µM | OVCAR-5 83.2 µM | HCC 2998 > 100 µM | SNB-75 99.1 µM | OVCAR-3 > 100 µM | PC-3 36.8 µM | NCI-H226 41 µM | CCRF-CEM 19 µM | RXF 393 > 100 µM
